Assay results as given in patent US20260297105A1, “RAF-MEK PROTEIN COMPLEX MODULATORS AND METHODS OF USE THEREOF” (GANDEEVA THERAPEUTICS, INC., priority 2023, published 2026).

Assays:
[1] = test system: BRAF-MEK1; test: BRAF-MEK TR-FRET assay, stabilization of MEK1 and BRAF interaction; type: binding; conditions: 4 nM BRAF, 10 nM MEK, 100 μM ATP; 1 hr at 25° C.; read-out: BRAF-MEK TR-FRET Assay (EC50, fold stabilization)
How it was run: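 Read-out is fold stabilization (treated FRET ratio/DMSO, Em 665/620 nm), fit 4-parameter for EC50 from 2 replicates. Compounds sat with 4 nM GST-BRAF and 10 nM in-house His-MEK1 1 h at 25° C (Tris pH 7.5, MgCl2, 100 μM ATP), then detection antibodies 1 h.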

[2] = target: T1, MEK1 (Homo sapiens, UniProt Q02750); test: MEK1 kinase cascade assay (ADP-Glo), inhibition of MEK1 kinase activity; type: biochemical; conditions: 25 nM BRAF, 6.25 nM MEK1, 0.5 μM ERK, 1 mM ATP; 20 min preincubation, 1 hr at 25° C.; read-out: BRAF ADP Glo kinase assay V3 (IC50)
T1 construct: purchased SignalChem M02-14H
T1 sequence (Q02750 whole entry): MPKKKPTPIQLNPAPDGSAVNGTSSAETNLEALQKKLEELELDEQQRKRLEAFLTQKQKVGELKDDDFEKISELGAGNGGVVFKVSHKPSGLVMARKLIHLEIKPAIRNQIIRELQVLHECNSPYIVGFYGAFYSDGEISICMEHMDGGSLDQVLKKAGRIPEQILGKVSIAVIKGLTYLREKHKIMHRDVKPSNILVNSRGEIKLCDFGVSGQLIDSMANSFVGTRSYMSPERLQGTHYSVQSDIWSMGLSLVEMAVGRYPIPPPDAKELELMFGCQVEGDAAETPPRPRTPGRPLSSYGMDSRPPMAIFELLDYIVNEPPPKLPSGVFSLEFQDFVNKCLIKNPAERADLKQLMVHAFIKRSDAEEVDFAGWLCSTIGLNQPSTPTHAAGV
T1 sequence (P15056 445-723 partner limits assumed): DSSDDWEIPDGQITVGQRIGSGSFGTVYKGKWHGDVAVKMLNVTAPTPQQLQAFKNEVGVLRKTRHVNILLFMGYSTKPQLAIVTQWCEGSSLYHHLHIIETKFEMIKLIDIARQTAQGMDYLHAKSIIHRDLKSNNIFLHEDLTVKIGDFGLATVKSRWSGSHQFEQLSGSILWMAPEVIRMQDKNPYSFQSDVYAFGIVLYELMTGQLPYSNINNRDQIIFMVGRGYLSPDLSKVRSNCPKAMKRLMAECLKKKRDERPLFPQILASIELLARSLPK
How it was run: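 Cascade format with ADP-Glo read-out: BRAF (25 nM) and compound, 1% DMSO, 20 mins at 25° C, then MEK1 6.25 nM, ERK1 0.5 μM, ATP 1 mM for 1 hr at 25° C in HEPES pH 7.5 buffer with MgCl2, CHAPS and DTT. Percent inhibition, scaled between DMSO and 1 μM Trametinib, was fit by 4-parameter logistic to give IC50 (2 replicate wells).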

[3] = test system: p-ERK1/2 in HCT116 cells; test: AlphaLISA p-ERK assay, cellular inhibition of ERK phosphorylation in HCT116 cells; type: cell-based; conditions: Homo sapiens, HCT-116, 2 hours treatment, PMA stimulation 30 mins
Method: (§1) Cell culture: HCTI 16, HT-29, and NCI-H292 cells were acquired from American Type Culture Collection (ATCC). HCT116 and HT-29 cells were maintained in ATCC-formulated McCoy's 5a Medium Modified supplemented with 10% fetal bovine serum, NCI-H292 cells were cultured in ATCC formulated RPMI-1640 supplemented with 10% fetal bovine serum. All cells were maintained at 37° C., 5% CO2.
Efficacy of exemplary compounds in cellular inhibition of ERK phosphorylation: Phosphorylation status of ERK1/2 (p-ERK) was used as a readout for inhibition of BRAF-MEK pathway. p-ERK was detected using an immunoassay for quantitative detection of phospho-ERK 1/2 (phosphorylated on Thr202/Tyr204 in ERK1, or Thr185/Tyr187 in ERK2), such as the AlphaLISA® SureFire® Ultra™ p-ERK1/2 (Thr202/Tyr204) kit (Perkin Elmer). HCT116 cells were plated at 10,000 cells per well in 384-well TC-treated plates (Coming). Cells were plated for 24 hours, the medium was then aspirated and cells were treated with vehicle (DMSO) or test compounds (0.1% DMSO in final volume) prepared in serum free, phenol red free medium for 2 hours. Following treatment, cells were stimulated with PMA (1.25 μM/well) for 30 mins after which the medium was aspirated, and the cells were lysed for 10 mins with 1× lysis buffer supplemented with Halt Protease and Phosphatase Inhibitor Cocktail (Thermo Fisher). The lysate was transferred to a 384 well Alpha-plate (PerkinElmer) and incubated for 1 hour with acceptor bead mix followed by 1 hour incubation with donor bead mix. After incubation, the plate was read on a Cytation5 microplate reader (Agilent). % inhibition as a function of compound concentration from 3 replicate wells was fit with a 4-parameter logistic curve using GraphPad Prism or CDD Vault to derive IC50 values.
(§2) In this table, for the BRAF ADP Glo kinase assay, “A” indicates IC50 of less than 5 nM; “B” indicates IC50 of between 5 nM to 50 nM; and “C” indicates IC50 of between 50 nM to 500 nM. “D” indicates IC50 of greater than 500 nM. For the BRAF-MEK TR-FRET assay, “A” indicates EC50 of less than 50 nM; “B” indicates EC50 of between 50 nM to 200 nM; and “C” indicates EC50 of between 200 nM to 1 μM. “D′” indicates EC50 of greater than 1 μM. For the AlphaLisa P-ERK assay, “A” indicates IC50 of less than 1 nM; “B” indicates IC50 of between 1 nM to 10 nM; and “C” indicates IC50 of between 10 nM to 100 nM. “D” indicates IC50 of greater than 100 nM. For the cell viability assay, “A” indicates IC50 of less than 1 nM; “B” indicates IC50 of between 1 nM to 10 nM; and “C” indicates IC50 of between 10 nM to 100 nM. “D” indicates IC50 of greater than 100 nM.

[4] = test system: NCI-H292 cells; test: Cell viability assay (CellTiter-Glo), NCI-H292; type: cell-based; conditions: Homo sapiens, 72 hrs, read-out: Cell Viability Assay: IC50 Determination NCI-H292
Method: as §1
Efficacy of exemplary compounds in inhibition of cell viability: HCT116 and HT-29 cells were plated at 4,000 cells per well and NCI-H292 cells were plated at 2,000 cells per well in their respective media in 384-well white, TC-treated plates (Corning). After 24 hours of incubation, the cells were treated with vehicle (DMSO) or test compounds (0.1% DMSO in final volume) for 72 hrs. The plate was equilibrated at room temperature for 10 mins followed by addition of a 1:1 volume of CellTiter-Glo® reagent (Promega). The contents were mixed for 2 mins on an orbital shaker to induce lysis. The plate was incubated at room temperature for 10 mins to stabilize luminescent signal before measuring luminescence on a Cytation5 microplate reader (Agilent). % inhibition as a function of compound concentration from 3 replicate wells was fit with a 4-parameter logistic curve using GraphPad Prism or CDD Vault to derive IC50 values.
as §2

CNS(=O)(=O)Nc1nccc(CN2C(=O)Oc3cc(Oc4cccnn4)ccc3[C@@H]2C)c1F (single isomer, unassigned) [Compound 22]
EC50 [1]: 50 to 200 nM
IC50 [2]: 5 to 50 nM
IC50 [3]: 10 to 100 nM

CNS(=O)(=O)Nc1nccc(CN2C(=O)Oc3cc(Oc4cccnn4)c(F)cc3C23COC3)c1F [Compound 18, 6-fluoro-3-{[3-fluoro-2-(methylaminosulfonylamino)-4-pyridyl]methyl}-7-(3-pyridazinyloxy)-2H,3H-spiro[1,3-benzoxazine-4,3′-oxetan]-2-one]
EC50 [1]: < 50 nM
IC50 [2]: 5 to 50 nM
IC50 [3]: 10 to 100 nM

CNS(=O)(=O)Nc1cccc(CN2C(=O)Oc3cc(Oc4cccnn4)c(F)cc3C23CCC3)c1F [Compound 19, 6-fluoro-3-{1[2-fluoro-3-(methylaminosulfonylamino)phenyl]methyl}-7-(3-pyridazinyloxy)-2H,3H-spiro[1,3-benzoxazine-4,1′-cyclobutan]-2-one]
EC50 [1]: < 50 nM
IC50 [2]: 5 to 50 nM
IC50 [3]: < 1 nM

CNS(=O)(=O)Nc1nccc(CN2C(=O)Oc3cc(Oc4cccnn4)ccc3C23CCC3)c1F [Compound 20, 3-{[3-fluoro-2-(methylaminosulfonylamino)-4-pyridyl]methyl}-7-(3-pyridazinyloxy)-2H,3H-spiro[1,3-benzoxazine-4,1′-cyclobutan]-2-one]
EC50 [1]: < 50 nM
IC50 [2]: < 5 nM
IC50 [3]: 1 to 10 nM

CN(C)C(=O)Oc1ccc2c(c1)OC(=O)N(Cc1cccc(CN3CCOC3=O)c1F)C2 [Compound 21, 3-(2-fluoro-3-((2-oxooxazolidin-3-yl)methyl)benzyl)-2-oxo-3,4-dihydro-2H-benzo[e][1,3]oxazin-7-yl dimethylcarbamate]
EC50 [1]: 200 to 1000 nM
IC50 [2]: 5 to 50 nM
IC50 [3]: 1 to 10 nM

CNS(=O)(=O)Nc1cccc(CN2C(=O)Oc3c(ccc(OC(=O)N(C)C)c3F)C23COC3)c1F [Compound 77, 8-fluoro-3-({2-fluoro-3-(methylsulfamoyl)amino]phenyl}methyl)-2-oxo-2,3-dihydrospiro[1,3-benzoxazine-4,3′-oxetan]-7-yl N,N-dimethyl carbamate]
EC50 [1]: 50 to 200 nM
IC50 [2]: 5 to 50 nM
IC50 [4]: < 1 nM

CN(C)C(=O)Oc1cc(F)c2c(c1)OC(=O)N(Cc1cccc(NS(=O)(=O)C3CC3)c1F)C2 [Compound 102, 3-(3-(cyclopropanesulfonamido)-2-fluorobenzyl)-5-fluoro-2-oxo-3,4-dihydro-2H-benzo[e][1,3]oxazin-7-yl dimethylcarbamate]
EC50 [1]: 50 to 200 nM
IC50 [2]: 5 to 50 nM
IC50 [4]: 1 to 10 nM

CNS(=O)(=O)Nc1cccc(CN2C(=O)Oc3cc(OC(=O)N(C)C)c(Cl)cc3[C@@H]2C)c1F [Compound 108, (S)-6-chloro-7-(dimethylaminocarbonyloxy)-3-{[2-fluoro-3-(methylaminosulfonylamino)phenyl]methyl}-4-methyl-3,4-dihydro-2H-1,3-benzoxazin-2-one]
EC50 [1]: 50 to 200 nM
IC50 [2]: 5 to 50 nM
IC50 [4]: < 1 nM

CNS(=O)(=O)Nc1cccc(CN2Cc3cc(C)c(OC(=O)N(C)C)cc3OC2=O)c1F [Compound 112, 3-(2-fluoro-3-((N-methylsulfamoyl)amino)benzyl)-6-methyl-2-oxo-3,4-dihydro-2H-benzo[e][1,3]oxazin-7-yl dimethylcarbamate]
EC50 [1]: 200 to 1000 nM
IC50 [2]: < 5 nM
IC50 [4]: 1 to 10 nM

CN(C)C(=O)Oc1ccc2c(c1)OC(=O)N(Cc1cccc(NS(=O)(=O)N3CCC(F)C3)c1F)C2 (stereo not drawn) [Compound 113, 3-(2-fluoro-3-((3-fluoropyrrolidine)-1-sulfonamido)benzyl)-2-oxo-3,4-dihydro-2H-benzo[e][1,3]oxazin-7-yl dimethylcarbamate]
EC50 [1]: 200 to 1000 nM
IC50 [2]: 5 to 50 nM
IC50 [4]: 1 to 10 nM

CNS(=O)(=O)Nc1cccc(CN2Cc3ccc(Oc4ncccn4)c(F)c3OC2=O)c1F [Compound 123, 8-fluoro-3-{[2-fluoro-3-(methylaminosulfonylamino)phenyl]methyl}-7-(2-pyrimidinyloxy)-3,4-dihydro-2H-1,3-benzoxazin-2-one]
EC50 [1]: 200 to 1000 nM
IC50 [2]: 5 to 50 nM
IC50 [4]: 10 to 100 nM

CN(C)C(=O)Oc1ccc2c(c1)OC(=O)N(Cc1cccc(NS(=O)(=O)C3CC3)c1F)C2 [Compound 125, 3-(3-(cyclopropanesulfonamido)-2-fluorobenzyl)-2-oxo-3,4-dihydro-2H-benzo[e][1,3]oxazin-7-yl dimethylcarbamate]
EC50 [1]: 200 to 1000 nM
IC50 [2]: 5 to 50 nM
IC50 [4]: 10 to 100 nM

CNS(=O)(=O)Nc1nccc(CN2C(=O)Oc3cc(Oc4ncco4)c(F)cc3C23CCC3)c1F [Compound 165, 6-fluoro-3-{[3-fluoro-2-(methylaminosulfonylamino)-4-pyridyl]methyl}-7-(1,3-oxazol-2-yloxy)-2H,3H-spiro[1,3-benzoxazine-4,1′-cyclobutan]-2-one]
EC50 [1]: < 50 nM
IC50 [2]: < 5 nM
IC50 [4]: 1 to 10 nM

CNS(=O)(=O)Nc1nccc(CN2C(=O)Oc3cc(Oc4nccnn4)c(F)cc3C23CCC3)c1F [Compound 166, 6-fluoro-3-{[3-fluoro-2-(methylaminosulfonylamino)-4-pyridyl]methyl}-7-(1,2,4-triazin-3-yloxy)-2H,3H-spiro[1,3-benzoxazine-4,1′-cyclobutan]-2-one]
EC50 [1]: < 50 nM
IC50 [2]: 5 to 50 nM
IC50 [4]: 1 to 10 nM

O=C1Oc2cc(Oc3ncco3)ccc2C2(CCC2)N1Cc1ccnc(NS(=O)(=O)C2CC2)c1F [Compound 167, (cyclopropylsulfonyl)[3-fluoro-4-({7-(1,3-oxazol-2-yloxy)-2-oxo-2H,3H-spiro[1,3-benzoxazine-4,1′-cyclobutan]-3-yl}methyl)-2-pyridyl]amine]
EC50 [1]: 50 to 200 nM
IC50 [2]: 5 to 50 nM
IC50 [4]: 10 to 100 nM

CNS(=O)(=O)Nc1nccc(CN2C(=O)Oc3cc(Oc4ncco4)cc(F)c3C23CCC3)c1F [Compound 169, 5-fluoro-3-{[3-fluoro-2-(methylaminosulfonylamino)-4-pyridyl]methyl}-7-(1,3-oxazol-2-yloxy)-2H,3H-spiro[1,3-benzoxazine-4,1′-cyclobutan]-2-one]
EC50 [1]: < 50 nM
IC50 [2]: 5 to 50 nM
IC50 [4]: 1 to 10 nM

O=C1Oc2cc(Oc3ncco3)c(F)cc2C2(CCC2)N1Cc1ccnc(NS(=O)(=O)C2CC2)c1F [Compound 170, (cyclopropylsulfonyl)[3-fluoro-4-({6-fluoro-7-(1,3-oxazol-2-yloxy)-2-oxo-2H,3H-spiro[1,3-benzoxazine-4,1′-cyclobutan]-3-yl}methyl)-2-pyridyl]amine]
EC50 [1]: 200 to 1000 nM
IC50 [2]: 5 to 50 nM
IC50 [4]: 10 to 100 nM
